Laboratory results as given in patent publication US11052072B2, “Pyrazolo[4,3-C] quinoline derivatives for inhibition of β-glucuronidase” (Kaohsiung Medical University, priority 2015, dated 2021).
Counter-ions that a name gives are not always drawn.

What was measured:
[1] = biological target: E. coli β-glucuronidase (eβG) (Escherichia coli, UniProt P05804); assay: Inhibition of purified recombinant eβG activity (pNPG substrate, OD420); type: biochemical; details: for remaining activity at 10 µM: read-out: Percent activity of E. coli-glucuronidase at 10 μM (%)
Experimental: (§1) The pyrazolo[4,3-c]quinoline derivatives were examined for their inhibition against eβG or hβG activity. Purified recombinant eβG or hβG proteins were incubated with serial dilution of the inhibitors, respectively. The βG activity was determined by color development of a βG substrate, pNPG. The hydrolysis product of pNPG, PNP was measured by OD420.

[2] = biological target: T1, human liver-glucuronidase (hβG) (Homo sapiens, UniProt P08236); assay: Inhibition of purified recombinant hβG activity (pNPG substrate, OD420); type: biochemical; details: 10 μM, purified recombinant hβG, pNPG, means ± S.D. of at least three separate experiments; for remaining activity at 10 µM: read-out: Percent activity of human liver-glucuronidase at 10 μM (%)
T1 sequence (P08236 23-651): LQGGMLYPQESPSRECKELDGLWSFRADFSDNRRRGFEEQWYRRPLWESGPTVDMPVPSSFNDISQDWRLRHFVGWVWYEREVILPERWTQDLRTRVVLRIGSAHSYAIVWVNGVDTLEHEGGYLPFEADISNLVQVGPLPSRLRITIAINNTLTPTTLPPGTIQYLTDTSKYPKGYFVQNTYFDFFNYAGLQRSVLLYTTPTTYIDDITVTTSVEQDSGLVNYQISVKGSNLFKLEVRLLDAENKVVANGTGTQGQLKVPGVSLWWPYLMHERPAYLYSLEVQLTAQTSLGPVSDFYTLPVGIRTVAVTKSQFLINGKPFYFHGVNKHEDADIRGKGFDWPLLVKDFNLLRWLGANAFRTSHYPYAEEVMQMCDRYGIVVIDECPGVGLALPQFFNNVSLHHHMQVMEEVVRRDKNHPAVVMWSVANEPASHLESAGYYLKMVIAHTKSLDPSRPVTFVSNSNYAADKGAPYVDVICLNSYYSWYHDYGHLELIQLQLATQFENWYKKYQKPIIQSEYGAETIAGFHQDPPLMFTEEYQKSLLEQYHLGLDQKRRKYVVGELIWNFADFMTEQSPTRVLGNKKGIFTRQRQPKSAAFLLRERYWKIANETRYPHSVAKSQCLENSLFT
Experimental: as §1

Chain of E. coli β-glucuronidase (eβG) (P05804 whole entry): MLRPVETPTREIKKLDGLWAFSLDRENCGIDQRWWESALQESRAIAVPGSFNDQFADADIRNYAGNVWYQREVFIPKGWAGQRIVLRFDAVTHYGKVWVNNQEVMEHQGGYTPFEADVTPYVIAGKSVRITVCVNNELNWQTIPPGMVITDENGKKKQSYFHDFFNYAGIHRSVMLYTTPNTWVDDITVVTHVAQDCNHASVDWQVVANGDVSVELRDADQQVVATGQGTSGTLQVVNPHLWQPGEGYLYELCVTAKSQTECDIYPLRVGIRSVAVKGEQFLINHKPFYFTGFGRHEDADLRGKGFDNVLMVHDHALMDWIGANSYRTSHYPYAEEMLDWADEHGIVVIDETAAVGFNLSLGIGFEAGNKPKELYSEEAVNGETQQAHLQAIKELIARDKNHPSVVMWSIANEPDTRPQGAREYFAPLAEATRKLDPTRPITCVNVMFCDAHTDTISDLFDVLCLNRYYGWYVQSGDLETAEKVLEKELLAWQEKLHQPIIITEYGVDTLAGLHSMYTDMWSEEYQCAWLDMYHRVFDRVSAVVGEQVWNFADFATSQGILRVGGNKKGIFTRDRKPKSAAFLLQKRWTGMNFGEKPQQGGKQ

CSc1ccc(Nc2nc3ccccc3c3[nH]nc(N)c23)cc1 (as salt: salt) [Compound 20, 3-Amino-4-(4-methylthiophenylamino)-1H-pyrazolo[4,3-c]quinoline]
melting point: 269 to 271 °C

Nc1n[nH]c2c1c(Nc1ccc([N+](=O)[O-])cc1)nc1ccccc12 [Compound 21, 3-Amino-4-(4-nitrophenylamino)-1H-pyrazolo[4,3-c]quinoline]
remaining activity at 10 µM [1]: 46.5 ± 4.95%
remaining activity at 10 µM [2]: 90.86 ± 0.32%

Nc1n[nH]c2c1c(Nc1ccccc1O)nc1ccccc12 [Compound 29, 3-Amino-4-(2-hydroxyphenylamino)-1H-pyrazolo[4,3-c]quinoline]
melting point: 156 to 157 °C
remaining activity at 10 µM [1]: 7 ± 1%
remaining activity at 10 µM [2]: 104 ± 2.12%

Nc1n[nH]c2c1c(Nc1ccccc1)nc1ccccc12 [Compound 14, 3-Amino-4-anilino-1H-pyrazolo[4,3-c]quinoline]
melting point: 256 to 258 °C
remaining activity at 10 µM [1]: 4 ± 1%
remaining activity at 10 µM [2]: 105.5 ± 0.71%

Nc1n[nH]c2c1c(Nc1ccc(Cl)cc1)nc1cc(F)ccc12 [Compound 8, N^4-(4-Chlorophenyl)-7-fluoro-1H-pyrazolo[4,3-c]quinoline-3,4-diamine]
melting point: 254 °C (dec.)
remaining activity at 10 µM [1]: 4 ± 1%
remaining activity at 10 µM [2]: 83.5 ± 0.71%

Nc1n[nH]c2c1c(Nc1cccc(Cl)c1)nc1ccccc12 [Compound 26, N^4-(3-Chlorophenyl)-1H-pyrazolo[4,3-c]quinoline-3,4-diamine]
melting point: 227 to 229 °C
remaining activity at 10 µM [1]: 14.9 ± 2.31%
remaining activity at 10 µM [2]: 97.78 ± 0.01%

Cc1ccc(Nc2nc3cc(F)ccc3c3[nH]nc(N)c23)cc1 [Compound 9, 7-Fluoro-N^4-(p-tolyl)-1H-pyrazolo[4,3-c]quinoline-3,4-diamine]
remaining activity at 10 µM [1]: 4 ± 1%
remaining activity at 10 µM [2]: 81.5 ± 0.71%

CSc1ccc(Nc2nc3ccccc3c3[nH]nc(N)c23)cc1 [Compound 20, 3-Amino-4-(4-methylthiophenylamino)-1H-pyrazolo[4,3-c]quinoline]
remaining activity at 10 µM [1]: 5 ± 1.41%
remaining activity at 10 µM [2]: 108 ± 3.54%

Nc1n[nH]c2c1c(Nc1ccc(C(F)(F)F)cc1)nc1ccccc12 [Compound 18, 3-Amino-4-(4-trifluoromethylphenylamino)-1H-pyrazolo[4,3-c]quinoline]
melting point: 251 to 252 °C
remaining activity at 10 µM [1]: 4.5 ± 0.71%
remaining activity at 10 µM [2]: 106 ± 2.83%

COc1cccc(Nc2nc3ccccc3c3[nH]nc(N)c23)c1 [Compound 27, 3-Amino-4-(3-methoxyphenylamino)-1H-pyrazolo[4,3-c]quinoline]
melting point: 184 to 186 °C
remaining activity at 10 µM [1]: 8 ± 1.41%
remaining activity at 10 µM [2]: 107 ± 1.41%

CC(=O)c1cccc(Nc2nc3ccccc3c3[nH]nc(N)c23)c1 [Compound 28, 3-Amino-4-(3-acetylphenylamino)-1H-pyrazolo[4,3-c]quinoline]
melting point: > 380 °C
remaining activity at 10 µM [1]: 91 ± 1%
remaining activity at 10 µM [2]: 93 ± 2.83%

O=C(Nc1ccccc1)Nc1n[nH]c2c1c(Nc1ccc(Cl)cc1)nc1ccccc12 [Compound 36, 1-{4-[(4-Chlorophenyl)amino]-1H-pyrazolo[4,3-c]quinolin-3-yl}-3-phenylurea]
melting point: 282 to 283 °C
remaining activity at 10 µM [1]: 4 ± 1%
remaining activity at 10 µM [2]: 83.1 ± 1.29%

COc1ccc(NC(=O)Nc2n[nH]c3c2c(Nc2ccc(Cl)cc2)nc2ccccc23)cc1 [Compound 38, 1-{4-[(4-Chlorophenyl)amino]-1H-pyrazolo[4,3-c]quinolin-3-yl}-3-(4-methoxyphenyl)urea]
melting point: 211 to 212 °C
remaining activity at 10 µM [1]: 4 ± 1%
remaining activity at 10 µM [2]: 85.5 ± 0.71%

Cc1cccc2c1nc(Nc1ccc(Cl)cc1)c1c(N)n[nH]c12 [Compound 6, N^4-(4-Chlorophenyl)-6-methyl-1H-pyrazolo[4,3-c]quinoline-3,4-diamine]
melting point: 249 to 250 °C
remaining activity at 10 µM [1]: 6 ± 1%
remaining activity at 10 µM [2]: 78.5 ± 0.71%

Cc1cccc(Nc2nc3ccccc3c3[nH]nc(N)c23)c1 [Compound 25, N^4-(m-Tolyl)-1H-pyrazolo[4,3-c]quinoline-3,4-diamine]
remaining activity at 10 µM [1]: 69.9 ± 0.02%
remaining activity at 10 µM [2]: 102 ± 2.08%

O=C(Nc1ccccc1)Nc1n[nH]c2c1c(=O)[nH]c1ccccc12 [Compound 34, 1-(4-oxo-4,5-dihydro-1H-pyrazolo[4,3-c]quinolin-3-yl)-3-phenylurea]
remaining activity at 10 µM [1]: 86 ± 1%
remaining activity at 10 µM [2]: 82 ± 1.41%

Nc1ccc(Nc2nc3ccccc3c3[nH]nc(N)c23)cc1 [Compound 16, 3-Amino-4-(4-aminophenylamino)-1H-pyrazolo[4,3-c]quinoline]
melting point: 355 to 356 °C
remaining activity at 10 µM [1]: 8 ± 1%
remaining activity at 10 µM [2]: 82.5 ± 3.54%

Cc1ccc(Nc2nc3ccc(Cl)cc3c3[nH]nc(N)c23)cc1 (as salt: salt) [Compound 11, 8-Chloro-N^4-(p-tolyl)-1H-pyrazolo[4,3-c]quinoline-3,4-diamine]
melting point: 261 °C

Nc1n[nH]c2c1c(Nc1ccc(C(=O)O)cc1)nc1ccccc12 (as salt: salt) [Compound 22, 4-(3-Amino-1H-pyrazolo[4,3-c]quinolin-4-ylamino)benzoic acid]
melting point: 362 to 364 °C

Cc1cccc(Nc2nc3ccccc3c3[nH]nc(N)c23)c1 (as salt: salt) [Compound 25, N^4-(m-Tolyl)-1H-pyrazolo[4,3-c]quinoline-3,4-diamine]
melting point: 281 to 282 °C

Cc1ccc(Nc2nc3ccc(Br)cc3c3[nH]nc(N)c23)cc1 [Compound 13, S-Bromo-N^4-(p-tolyl)-1H-pyrazolo[4,3-c]quinoline-3,4-diamine]
Percent activity of E. coli-glucuronidase at 10 μM (%) ([1]; 10 μM, purified recombinant eβG, pNPG, means ± S.D. of at least three separate experiments): 4 ± 1%
Percent activity of human liver-glucuronidase at 10 μM (%) [2]: 80.21 ± 2.14%

CC(=O)c1ccc(Nc2nc3ccccc3c3[nH]nc(N)c23)cc1 (as salt: salt) [Compound 23, 3-Amino-4-(4-acetylphenylamino)-1H-pyrazolo[4,3-c]quinoline]
melting point: 249 to 251 °C

Nc1n[nH]c2c1c(Nc1ccc(C(=O)O)cc1)nc1ccccc12 [Compound 22, 4-(3-Amino-1H-pyrazolo[4,3-c]quinolin-4-ylamino)benzoic acid]
remaining activity at 10 µM [1]: 15.5 ± 1.71%
remaining activity at 10 µM [2]: 95 ± 4.24%

CCOc1ccc(NC(=S)N(CCO)Cc2cc3cc(C)cc(C)c3[nH]c2=O)cc1 [βG-Inh, 1-((6,8-Dimethyl-2-oxo-1,2-dihydroquinolin-3-yl)methyl)-3-(4-ethoxyphenyl)-1-(2-hydroxyethyl) thiourea, reference compound]
remaining activity at 10 µM [1]: 3 ± 1%

Cc1ccc(Nc2nc3cc(F)ccc3c3[nH]nc(N)c23)cc1 (as salt: salt) [Compound 9, 7-Fluoro-N^4-(p-tolyl)-1H-pyrazolo[4,3-c]quinoline-3,4-diamine]
melting point: 246 to 247 °C

Nc1n[nH]c2c1c(Nc1cccc(O)c1)nc1ccccc12 (as salt: salt) [Compound 24, 3-Amino-4-(3-hydroxyphenylamino)-1H-pyrazolo[4,3-c]quinoline]
melting point: 319 to 321 °C

Nc1n[nH]c2c1c(Nc1ccc(Cl)cc1)nc1ccc(Cl)cc12 (as salt: salt) [Compound 10, 8-Chloro-N^4-(4-chlorophenyl)-1H-pyrazolo[4,3-c]quinoline-3,4-diamine]
melting point: 270 to 272 °C

Cc1ccc(Nc2nc3ccc(Cl)cc3c3[nH]nc(N)c23)cc1 [Compound 11, 8-Chloro-N^4-(p-tolyl)-1H-pyrazolo[4,3-c]quinoline-3,4-diamine]
remaining activity at 10 µM [1]: 3 ± 1%
remaining activity at 10 µM [2]: 80.5 ± 2.12%

Nc1n[nH]c2c1c(Nc1ccc(Cl)cc1)nc1ccc(Cl)cc12 [Compound 10, 8-Chloro-N^4-(4-chlorophenyl)-1H-pyrazolo[4,3-c]quinoline-3,4-diamine]
remaining activity at 10 µM [1]: 3 ± 1%
remaining activity at 10 µM [2]: 77 ± 1.41%

CC(=O)c1ccc(Nc2nc3ccccc3c3[nH]nc(N)c23)cc1 [Compound 23, 3-Amino-4-(4-acetylphenylamino)-1H-pyrazolo[4,3-c]quinoline]
remaining activity at 10 µM [1]: 3 ± 1%
remaining activity at 10 µM [2]: 104 ± 1.41%

Nc1n[nH]c2c1c(Nc1ccc([N+](=O)[O-])cc1)nc1ccccc12 (as salt: salt) [Compound 21, 3-Amino-4-(4-nitrophenylamino)-1H-pyrazolo[4,3-c]quinoline]
melting point: 303 to 305 °C

Nc1n[nH]c2c1c(Nc1cccc(O)c1)nc1ccccc12 [Compound 24, 3-Amino-4-(3-hydroxyphenylamino)-1H-pyrazolo[4,3-c]quinoline]
remaining activity at 10 µM [1]: 13.5 ± 0.71%
remaining activity at 10 µM [2]: 105 ± 1.41%
